Consider six compounds from patent US4199592A, “Antiinflammatory 4,5-diaryl-2-nitroimidazoles” (E. I. Du Pont de Nemours and Company, priority 1979, dated 1980).

Read-outs that look alike come from different tables or passages of the source.

The subject of experiment [1] is adjuvant-induced arthritis in rats. As to the kind of experiment: Established Adjuvant-Induced Arthritis in Rats (A.A.). The format is in vivo, Charles River Lewis male rats. As to conditions: Rattus norvegicus, 24 h, read-out: A.A. ED50% (ED50% decrease from control paw volume).
The subject of experiment [2] is stretching or writhing syndrome indicative of pain induced by phenylquinone. In words: Phenylquinone Writhing Test. The format is in vivo, female white mice. To be noted: Mus musculus, 0.5 h; oral, fasted mice; at 1/2 hour; read-out: ED50 (effective analgesic dose for 50% of the mice). Here is the method: Phenylquinone Writhing Test
A standard procedure for detecting and comparing the analgesic activity of compounds in this series for which there is good correlation with human efficacy is the standard phenylquinone writhing test modified from Siegmund, et al., Proc. Soc. Exp. Biol. Med. 95, 729 (1957). A test compound suspended in 1% methylcellulose was given orally to fasted (17-21 hours) female white mice, 5-20 animals per double blind test. Aqueous (0.01% phenyl-p-benzoquinone) phenylquinone was injected intraperitoneally at 24 minutes later using 0.20 ml per mouse. […] The effective analgesic dose for 50% of the mice (ED50) was calculated by the moving average method of Thompson, W. R., Bact. Rev. 11, 115-145 (1947); also time of peak action was determined for many of the compounds.
A general note: In writhing tests, fewer writhes than in controls are read as antinociception.

Setting [3] is: oral, rats, 7 daily doses by gavage, paw volume of uninjected left hind paw one day after last dose.

One may read the ED50 as the midpoint of the dose-response relation.

With `CC(=O)Oc1ccccc1C(=O)O` [Aspirin, aspirin], the ED50 in experiment [1] (po) amounted to 305 mg/kg. In the case of `O=[N+]([O-])c1nc(-c2ccc(F)cc2)c(-c2ccc(F)cc2)[nH]1` [Example 1, 4,5-bis(4-Fluorophenyl)-2-nitroimidazole], the ED50 was 0.6 mg/kg in experiment [1] (setting [3]) and 59 mg/kg in experiment [2]. For the compound `COc1ccc2c(c1)c(CC(=O)O)c(C)n2C(=O)c1ccc(Cl)cc1` [Indomethacin, indomethacin], the ED50 in experiment [1] (po) was 0.3 mg/kg. Consider `CC(C)Cc1ccc(C(C)C(=O)O)cc1` (centres unmarked) [Ibuprofen, ibuprofen], for which the ED50 in experiment [1] (setting [3]) is 100 mg/kg. Turning to `COc1ccc(-c2nc([N+](=O)[O-])[nH]c2-c2ccc(OC)cc2)cc1` [Example 2, 4,5-bis(4-Methoxyphenyl)-2-nitroimidazole], the ED50 is 2.5 mg/kg in experiment [1] (setting [3]) and under 130 mg/kg in experiment [2].

In the case of `CCCCC1C(=O)N(c2ccccc2)N(c2ccccc2)C1=O` [Phenylbutazone, phenylbutazone], the ED50 in experiment [1] (setting [3]) amounted to 10 mg/kg.
